Reference: patent publication US10131652B2, “Pyrimidinyloxy benzene derivatives as herbicides” (E. I. DU PONT DE NEMOURS AND COMPANY, priority 2014, dated 2018)
Where two headings read alike, the source gives them in different places.

Experiments:
Type in all cases: in vivo
[1] = test system: barnyardgrass (Echinochloa crus-galli); test: Test B pre-/postemergence plant response; conditions: for pest or weed control at 500 g/ha: 500 g ai/ha
Summary of the method: (§1)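 Visual injury rating, 0 (no effect) to 100 (complete control), vs untreated controls after ~10 d greenhouse. Pre: directed soil spray after planting in loam/sand. Post: plants 2–10 cm, 1–2 leaf stage. Compound in non-phytotoxic solvent plus surfactant.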

[2] = test system: wheat (Triticum aestivum); test: Test B pre-/postemergence plant response
Summary of the method: as §1

[3] = test system: corn (Zea mays); test: Test B pre-/postemergence plant response
Summary of the method: as §1

[4] = test system: pigweed (Amaranthus retroflexus); test: Test B pre-/postemergence plant response; conditions: for pest or weed control at 500 g/ha: 500 g ai/ha
Summary of the method: as §1

[5] = test system: Italian ryegrass (Lolium multiflorum); test: Test B pre-/postemergence plant response
Summary of the method: as §1

[6] = test system: giant foxtail (Setaria faberii); test: Test B pre-/postemergence plant response; conditions: for pest or weed control at 500 g/ha: 500 g ai/ha
Summary of the method: as §1

[7] = test system: kochia (Kochia scoparia); test: Test B pre-/postemergence plant response
Summary of the method: as §1

[8] = test system: ragweed (common ragweed, Ambrosia elatior); test: Test B pre-/postemergence plant response
Summary of the method: as §1

[9] = test system: barnyardgrass (Echinochloa crus-galli); test: Test C flooded paddy test plant response; conditions: Flood, 250 g ai/ha, scale of 0 to 100 where 0 is no effect and 100 is complete control, 13 to 15 days
Summary of the method: (§2)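 Readout is a visual 0–100 score (100 = complete control) versus controls at 13–15 days. Plants at 2-leaf stage, flooded to 3 cm, treated through paddy water.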

[10] = test system: small-flower umbrella sedge (Cyperus difformis); test: Test C flooded paddy test plant response; conditions: Flood, 250 g ai/ha, scale of 0 to 100 where 0 is no effect and 100 is complete control, 13 to 15 days
Summary of the method: as §2

[11] = test system: rice (Oryza sativa); test: Test C flooded paddy test plant response; conditions: Flood, 250 g ai/ha, scale of 0 to 100 where 0 is no effect and 100 is complete control, 13 to 15 days
Summary of the method: as §2

[12] = test system: ducksalad (Heteranthera limosa); test: Test C flooded paddy test plant response; conditions: Flood, 250 g ai/ha, scale of 0 to 100 where 0 is no effect and 100 is complete control, 13 to 15 days
Summary of the method: as §2

[13] = test system: galium (catchweed bedstraw, Galium aparine); test: Test B postemergence plant response
Summary of the method: (§3)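 Plants grown in pots of loam soil–sand blend were sprayed postemergence with formulated test chemicals at 2 to 10 cm height, one- to two-leaf stage. After about 10 days in a greenhouse, injury was visually rated against untreated controls on a 0 to 100 scale (0 no effect, 100 complete control).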

[14] = test system: blackgrass (Alopecurus myosuroides); test: Test B postemergence plant response
Summary of the method: as §3

[15] = Preemergence, 125 g ai/ha, 0 to 100 scale (0 no effect, 100 complete control)
[16] = 125 g ai/ha, postemergence, 0 to 100 scale, 0 no effect, 100 complete control
[17] = Postemergence, 500 g ai/ha, 0 to 100 scale (0 no effect, 100 complete control)
[18] = Preemergence, 500 g ai/ha, 0 to 100 scale where 0 is no effect and 100 is complete control
[19] = 31 g ai/ha, Postemergence, 0 to 100 scale, 0 no effect, 100 complete control
[20] = 31 g ai/ha, Preemergence, 0 to 100 scale where 0 is no effect and 100 is complete control
[21] = Preemergence, 125 g ai/ha, 0 to 100 scale where 0 is no effect and 100 is complete control
[22] = Postemergence, 31 g ai/ha, 0 to 100 scale (0 no effect, 100 complete control)

## FC(F)(F)c1ccc(-c2c(Cl)cccc2Oc2ncc(Cl)cn2)nc1 [Compound 160, 5-chloro-2-[2-[5-(trifluoromethyl)-2-pyridinyl]-3-chlorophenoxy]pyrimidine]
[1]; Echinochloa crus-galli, post-emergence, 240 h, 125 g ai/ha, postemergence, 0 to 100 scale, 0 no effect, 100 complete control, read-out: Plant response rating, Barnyardgrass
  pest or weed control at 125 g/ha: 0%
[1]; Echinochloa crus-galli, post-emergence, 240 h, Postemergence, 0 to 100 scale (0 no effect, 100 complete control), read-out: Plant response rating, Barnyardgrass
  pest or weed control at 500 g/ha: 80%
[1]; Echinochloa crus-galli, pre-emergence, 240 h, Preemergence, 0 to 100 scale where 0 is no effect and 100 is complete control, read-out: Plant response rating, Barnyardgrass
  pest or weed control at 500 g/ha: 80%
[1]; [15]
  Barnyardgrass plant response rating: 0
[2]; Triticum aestivum, post-emergence, 240 h, 125 g ai/ha, postemergence, 0 to 100 scale, 0 no effect, 100 complete control, read-out: Plant response rating, Wheat
  plant injury at 125 g/ha: 20%
[2]; Triticum aestivum, post-emergence, 240 h, Postemergence, 500 g ai/ha, 0 to 100 scale (0 no effect, 100 complete control), read-out: Plant response rating, Wheat
  plant injury at 500 g/ha: 80%
[3]; Zea mays, post-emergence, 240 h, 125 g ai/ha, postemergence, 0 to 100 scale, 0 no effect, 100 complete control
  Corn plant response rating (crop injury, 0 = no effect, 100 = complete kill) at 125 g/ha: 30%
[3]; Zea mays, post-emergence, 240 h, Postemergence, 500 g ai/ha, 0 to 100 scale (0 no effect, 100 complete control)
  Corn plant response rating (crop injury, 0 = no effect, 100 = complete kill) at 500 g/ha: 90%
[4]; Amaranthus retroflexus, post-emergence, 240 h, 125 g ai/ha, postemergence, 0 to 100 scale, 0 no effect, 100 complete control, read-out: Plant response rating, Pigweed
  pest or weed control at 125 g/ha: 90%
[4]; Amaranthus retroflexus, post-emergence, 240 h, Postemergence, 0 to 100 scale (0 no effect, 100 complete control), read-out: Plant response rating, Pigweed
  pest or weed control at 500 g/ha: 100%
[4]; Amaranthus retroflexus, pre-emergence, 240 h, Preemergence, 0 to 100 scale where 0 is no effect and 100 is complete control, read-out: Plant response rating, Pigweed
  pest or weed control at 500 g/ha: 100%
[4]; [15]
  Pigweed plant response rating: 90
[5]; [16]
  Plant response rating, Ryegrass, Italian: 0
[5]; [17]
  Plant response rating, Ryegrass, Italian: 90
[5]; [15]
  Ryegrass, Italian plant response rating: 0
[5]; [18]
  Plant response rating, Ryegrass, Italian: 0
[6]; [15]
  Foxtail, Giant plant response rating: 50
[6]; Setaria faberi, post-emergence, 240 h, 125 g ai/ha, postemergence, 0 to 100 scale, 0 no effect, 100 complete control, read-out: Plant response rating, Foxtail, Giant
  pest or weed control at 125 g/ha: 30%
[6]; Setaria faberi, post-emergence, 240 h, Postemergence, 0 to 100 scale (0 no effect, 100 complete control), read-out: Plant response rating, Foxtail, Giant
  pest or weed control at 500 g/ha: 100%
[6]; Setaria faberi, pre-emergence, 240 h, Preemergence, 0 to 100 scale where 0 is no effect and 100 is complete control, read-out: Plant response rating, Foxtail, Giant
  pest or weed control at 500 g/ha: 100%
[7]; [16]
  Plant response rating, Kochia: 40
[7]; [17]
  Plant response rating, Kochia: 90
[7]; [15]
  Kochia plant response rating: 30
[7]; [18]
  Plant response rating, Kochia: 90
[8]; [16]
  Plant response rating, Ragweed: 0
[8]; [17]
  Plant response rating, Ragweed: 30
[8]; [15]
  Ragweed plant response rating: 0
[8]; [18]
  Plant response rating, Ragweed: 0
[9]; Echinochloa crus-galli, read-out: Barnyardgrass plant response rating
  pest or weed control at 250 g/ha: 0%
[10]; Cyperus difformis, read-out: Sedge, Umbrella plant response rating
  pest or weed control at 250 g/ha: 0%
[11]; Oryza sativa, read-out: Rice plant response rating
  plant injury at 250 g/ha: 0%
[12]; Heteranthera limosa, read-out: Ducksalad plant response rating
  pest or weed control at 250 g/ha: 0%
[13]; [16]
  Plant response rating, Galium: 70
[13]; [17]
  Plant response rating, Galium: 100
[14]; [16]
  Plant response rating, Blackgrass: 50
[14]; [17]
  Plant response rating, Blackgrass: 90

## N#Cc1cccc(Oc2ncc(Cl)cn2)c1-c1ccsc1 [Compound 112]
[1]; [19]
  Plant response rating, Barnyardgrass: 10
[1]; [20]
  Plant response rating, Barnyardgrass: 10
[1]; [16]
  Plant response rating, Barnyardgrass: 30
[1]; [21]
  Plant response rating, Barnyardgrass: 30
[2]; [19]
  Plant response rating, Wheat: 0
[2]; [16]
  Plant response rating, Wheat: 0
[3]; [19]
  Plant response rating, Corn: 10
[3]; [16]
  Plant response rating, Corn: 20
[4]; [19]
  Plant response rating, Pigweed: 30
[4]; [20]
  Plant response rating, Pigweed: 30
[4]; [16]
  Plant response rating, Pigweed: 30
[5]; [19]
  Plant response rating, Ryegrass, Italian: 0
[5]; [20]
  Plant response rating, Ryegrass, Italian: 0
[5]; [16]
  Plant response rating, Ryegrass, Italian: 0
[6]; [19]
  Plant response rating, Foxtail, Giant: 10
[6]; [20]
  Plant response rating, Foxtail, Giant: 10
[6]; [16]
  Plant response rating, Foxtail, Giant: 60
[6]; [21]
  Plant response rating, Foxtail, Giant: 70
[7]; [19]
  Plant response rating, Kochia: 60
[7]; [20]
  Plant response rating, Kochia: 0
[7]; [16]
  Plant response rating, Kochia: 70
[7]; [21]
  Plant response rating, Kochia: 50
[8]; [19]
  Plant response rating, Ragweed: 20
[8]; [20]
  Plant response rating, Ragweed: 0
[8]; [16]
  Plant response rating, Ragweed: 30
[9]
  Barnyardgrass plant response rating: 0
[10]
  Sedge, Umbrella plant response rating: 95
[11]
  Rice plant response rating: 0
[12]
  Ducksalad plant response rating: 30
[13]; [19]
  Plant response rating, Galium: 30
[13]; [16]
  Plant response rating, Galium: 50
[14]; [19]
  Plant response rating, Blackgrass: 0
[14]; [16]
  Plant response rating, Blackgrass: 20

## CCOC(=O)c1cc(-c2ccccc2Oc2ncc(Cl)cn2)on1 [Compound 225]
[1]; [20]
  Plant response rating, Barnyardgrass: 0
[1]; [16]
  Plant response rating, Barnyardgrass: 0
[1]; [22]
  Plant response rating, Barnyardgrass: 0
[1]; [15]
  Barnyardgrass plant response rating: 0
[2]; [16]
  Plant response rating, Wheat: 0
[2]; [22]
  Plant response rating, Wheat: 0
[3]; [16]
  Plant response rating, Corn: 0
[3]; [22]
  Plant response rating, Corn: 0
[4]; [20]
  Plant response rating, Pigweed: 0
[4]; [16]
  Plant response rating, Pigweed: 0
[4]; [22]
  Plant response rating, Pigweed: 0
[4]; [15]
  Pigweed plant response rating: 0
[5]; [20]
  Plant response rating, Ryegrass, Italian: 0
[5]; [16]
  Plant response rating, Ryegrass, Italian: 0
[5]; [22]
  Plant response rating, Ryegrass, Italian: 0
[5]; [15]
  Ryegrass, Italian plant response rating: 0
[6]; [20]
  Plant response rating, Foxtail, Giant: 0
[6]; [16]
  Plant response rating, Foxtail, Giant: 0
[6]; [22]
  Plant response rating, Foxtail, Giant: 0
[6]; [15]
  Foxtail, Giant plant response rating: 0
[7]; [20]
  Plant response rating, Kochia: 0
[7]; [16]
  Plant response rating, Kochia: 0
[7]; [22]
  Plant response rating, Kochia: 0
[7]; [15]
  Kochia plant response rating: 0
[8]; [20]
  Plant response rating, Ragweed: 0
[8]; [16]
  Plant response rating, Ragweed: 0
[8]; [22]
  Plant response rating, Ragweed: 0
[8]; [15]
  Ragweed plant response rating: 0
[9]
  Barnyardgrass plant response rating: 0
[10]
  Sedge, Umbrella plant response rating: 0
[11]
  Rice plant response rating: 0
[12]
  Ducksalad plant response rating: 0
[13]; [16]
  Plant response rating, Galium: 0
[13]; [22]
  Plant response rating, Galium: 0
[14]; [16]
  Plant response rating, Blackgrass: 0
[14]; [22]
  Plant response rating, Blackgrass: 0
